Measurements as given in patent US10576062B2, “Carbamoyloxymethyl triazole cyclohexyl acids as LPA antagonists” (Bristol-Myers Squibb Company, priority 2016, dated 2020).

Target: T1, human LPA1 (Homo sapiens, UniProt Q92633)
T1 construct: expressed in transfected cells; host or cells: Chinese hamster ovary (CHO) cells
Test: LPA1 functional antagonist assay (LPA-induced calcium flux)
Assay type: cell-based
Conditions: CHO cells overexpressing human LPA1; inhibition of calcium flux induced by 10 nM LPA; read-out: hLPA1 IC50
Procedure, shortened: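 CHO cells overexpressing human LPA1, loaded with calcium dye 30 min at 37° C, were preincubated 20 min at room temperature with compound (0.08 nM–5 μM, 0.5% DMSO) in HBSS/20 mM HEPES/0.1% fatty acid-free BSA.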

T1 sequence (Q92633 whole entry): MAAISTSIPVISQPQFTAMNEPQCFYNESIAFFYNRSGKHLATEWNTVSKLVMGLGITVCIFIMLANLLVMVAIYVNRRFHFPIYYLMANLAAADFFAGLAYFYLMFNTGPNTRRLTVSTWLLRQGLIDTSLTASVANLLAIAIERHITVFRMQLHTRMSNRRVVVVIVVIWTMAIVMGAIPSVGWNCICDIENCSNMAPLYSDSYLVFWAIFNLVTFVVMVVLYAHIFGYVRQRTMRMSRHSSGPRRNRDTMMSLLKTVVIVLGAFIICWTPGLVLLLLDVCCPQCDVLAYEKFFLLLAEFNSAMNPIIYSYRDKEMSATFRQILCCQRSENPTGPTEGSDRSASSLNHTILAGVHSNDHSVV

SMILES | IC50 [µM]
CCCCCN(C)C(=O)OCc1c(-c2cnc(O[C@H]3CCC[C@H](C(=O)O)C3)c(C)n2)nnn1C [Example 223, (1S,3S)-3-((3-methyl-5-(1-methyl-5-(((methyl(pentyl)carbamoyl)oxy)methyl)-1H-1,2,3-triazol-4-yl)pyrazin-2-yl)oxy)cyclohexane-1-carboxylic acid] | 0.056
CCc1nc(-c2nnn(C)c2COC(=O)N(C)CC2CC2)ccc1O[C@H]1CCC[C@H](C(=O)O)C1 [Example 194, (1S,3S)-3-((6-(5-((((cyclopropylmethyl)(methyl)carbamoyl)oxy)methyl)-1-methyl-1H-1,2,3-triazol-4-yl)-2-ethylpyridin-3-yl)oxy)cyclohexane-1-carboxylic acid] | 0.014
CCc1nc(-c2nnn(C)c2COC(=O)N(C)C2CCCC2)ccc1O[C@H]1CCC[C@H](C(=O)O)C1 [Example 195, (1S,3S)-3-((6-(5-(((cyclopentyl(methyl)carbamoyl)oxy)methyl)-1-methyl-1H-1,2,3-triazol-4-yl)-2-ethylpyridin-3-yl)oxy)cyclohexane-1-carboxylic acid] | 0.011
Cc1nc(-c2nnn(C)c2COC(=O)N(C)CCC(C)C)cnc1O[C@H]1CCC[C@H](C(=O)O)C1 [Example 222, (1S,3S)-3-((5-(5-(((isopentyl(methyl)carbamoyl)oxy)methyl)-1-methyl-1H-1,2,3-triazol-4-yl)-3-methylpyrazin-2-yl)oxy)cyclohexane-1-carboxylic acid] | 0.019
CN(CC1CCC1)C(=O)OCc1c(-c2cnc(O[C@H]3CCC[C@H](C(=O)O)C3)cn2)nnn1C [Example 214, (1S,3S)-3-((5-(5-((((cyclobutylmethyl)(methyl)carbamoyl)oxy)methyl)-1-methyl-1H-1,2,3-triazol-4-yl)pyrazin-2-yl)oxy)cyclohexane-1-carboxylic acid] | 0.068
Cc1nc(-c2nnn(C)c2COC(=O)N(C)CC2CCC2)ccc1O[C@H]1CCC[C@](F)(C(=O)O)C1 (racemic) [Example 11, (rac)-3-((6-(5-((((cyclobutylmethyl)(methyl)carbamoyl)oxy)methyl)-1-methyl-1H-1,2,3-triazol-4-yl)-2-methylpyridin-3-yl)oxy)-1-fluorocyclohexane-1-carboxylic Acid] | 0.012
CN(Cc1ccccc1)C(=O)OCc1c(-c2ccc(O[C@H]3CCC[C@H](C(=O)O)C3)c(C#N)n2)nnn1C [Example 290, (1S,3S)-3-((6-(5-(((benzyl(methyl)carbamoyl)oxy)methyl)-1-methyl-1H-1,2,3-triazol-4-yl)-2-cyanopyridin-3-yl)oxy)cyclohexane-1-carboxylic acid] | 0.002
CCCCN(C)C(=O)OCc1c(-c2ccc(O[C@H]3CCC[C@H](C(=O)O)C3)c(COC)n2)nnn1C [Example 284] | 0.048
CCc1nc(-c2nnn(C)c2COC(=O)N(C)C2CCC2)ccc1O[C@H]1CCC[C@H](C(=O)O)C1 [Example 203, (1S,3S)-3-((6-(5-(((cyclobutyl(methyl)carbamoyl)oxy)methyl)-1-methyl-1H-1,2,3-triazol-4-yl)-2-ethylpyridin-3-yl)oxy)cyclohexane-1-carboxylic acid] | 0.008
CCCC(C)(C)N(C)C(=O)OCc1c(-c2ccc(O[C@H]3CCC[C@H](C(=O)O)C3)cc2)nnn1C [Example 10, (1S,3S)-3-(4-(1-Methyl-5-(((methyl(2-methylpentan-2-yl)carbamoyl)oxy)methyl)-1H-1,2,3-triazol-4-yl)phenoxy)cyclohexanecarboxylic Acid] | 0.023

Same assay, conditions: human LPA1; read-out: hLPA1 IC50

SMILES | IC50 [µM]
Cc1nc(-c2nnn(C)c2COC(=O)NCCCCF)ccc1O[C@H]1CCC[C@H](C(=O)O)C1 [Example 191, (1S,3S)-3-((6-(5-((((4-fluorobutyl)carbamoyl)oxy)methyl)-1-methyl-1H-1,2,3-triazol-4-yl)-2-methylpyridin-3-yl)oxy)cyclohexane-1-carboxylic acid] | 0.553
Cc1nc(-c2nnn(C)c2COC(=O)N(C)CCCCF)ccc1O[C@H]1CCC[C@H](C(=O)O)C1 [Example 192, (1S,3S)-3-((6-(5-((((4-fluorobutyl)(methyl)carbamoyl)oxy)methyl)-1-methyl-1H-1,2,3-triazol-4-yl)-2-methylpyridin-3-yl)oxy)cyclohexane-1-carboxylic acid] | 0.036
CN(C(=O)OCc1c(-c2ccc(O[C@H]3CCC[C@H](C(=O)O)C3)cn2)nnn1C)C1CC2(CCC2)C1 [Example 180, (1S,3S)-3-((6-(1-methyl-5-(((methyl(spiro[3.3]heptan-2-yl)carbamoyl)oxy)methyl)-1H-1,2,3-triazol-4-yl)pyridin-3-yl)oxy)cyclohexane-1-carboxylic acid] | 0.062
CCCC1CCN(C(=O)OCc2c(-c3ccc(O[C@H]4CCC[C@H](C(=O)O)C4)c(C)n3)nnn2C)C1 (mixture of isomers) [Example 166, (1S,3S)-3-((2-methyl-6-(1-methyl-5-(((3-propylpyrrolidine-1-carbonyl)oxy)methyl)-1H-1,2,3-triazol-4-yl)pyridin-3-yl)oxy)cyclohexane-1-carboxylic acid] | 0.109
Cc1nc(-c2nnn(C)c2COC(=O)N(C)C2CC3(CCC3)C2)ccc1O[C@H]1CCCC(C(=O)O)C1 (stereo in doubt) [Example 158, (1R,3S)-3-((2-methyl-6-(1-methyl-5-(((methyl(spiro[3.3]heptan-2-yl)carbamoyl)oxy)methyl)-1H-1,2,3-triazol-4-yl)pyridin-3-yl)oxy)cyclohexane-1-carboxylic acid] | 0.032

Same assay, conditions: read-out: hLPA1 IC50

SMILES | IC50 [µM]
CCC(C)N(C)C(=O)OCc1c(-c2ccc(O[C@H]3CCC[C@H](C(=O)O)C3)cc2)nnn1C (mixture of isomers) [Example 68, (trans)-3-(4-(5-(((sec-butyl(methyl)carbamoyl)oxy)methyl)-1-methyl-1H-1,2,3-triazol-4-yl)phenoxy)cyclohexane-1-carboxylic acid] | 0.32
Cc1nc(-c2nnn(C)c2COC(=O)N(C)C2CC(F)(F)C2)ccc1O[C@H]1CCC[C@H](C(=O)O)C1 [Example 139, (1S,3S)-3-((6-(5-((((3,3-difluorocyclobutyl)(methyl)carbamoyl)oxy)methyl)-1-methyl-1H-1,2,3-triazol-4-yl)-2-methylpyridin-3-yl)oxy)cyclohexane-1-carboxylic acid] | 0.07
Cc1nc(-c2nnn(C)c2COC(=O)N2CCC(CC3CC3)C2)ccc1O[C@H]1CCC[C@H](C(=O)O)C1 (mixture of isomers) [Example 150, (1S,3S)-3-((6-(5-(((3-(cyclopropylmethyl)pyrrolidine-1-carbonyl)oxy)methyl)-1-methyl-1H-1,2,3-triazol-4-yl)-2-methylpyridin-3-yl)oxy)cyclohexane-1-carboxylic acid] | 0.091
CCCC(C)(C)N(C)C(=O)OCc1c(-c2ccc(O[C@H]3CCC[C@H](C(=O)O)C3)c(C)n2)nnn1C [Example 84, (1S,3S)-3-((2-methyl-6-(1-methyl-5-(((methyl(2-methylpentan-2-yl)carbamoyl)oxy)methyl)-1H-1,2,3-triazol-4-yl)pyridin-3-yl)oxy)cyclohexanecarboxylic acid] | 0.069
Cc1nc(-c2nnn(C)c2COC(=O)N2CCCC2C(F)(F)F)ccc1O[C@H]1CCC[C@H](C(=O)O)C1 (mixture of isomers) [Example 154, (1S,3S)-3-((2-methyl-6-(1-methyl-5-(((2-(trifluoromethyl)pyrrolidine-1-carbonyl)oxy)methyl)-1H-1,2,3-triazol-4-yl)pyridin-3-yl)oxy)cyclohexane-1-carboxylic acid] | 0.321
Cc1nc(-c2nnn(C)c2COC(=O)N(C)C2CC(F)(F)C2)ccc1O[C@H]1CCC[C@@H](C(=O)O)C1 [Example 141, (1R,3S)-3-((6-(5-((((3,3-difluoro-cyclobutyl)(methyl)carbamoyl)oxy)methyl)-1-methyl-1H-1,2,3-triazol-4-yl)-2-methylpyridin-3-yl)oxy)cyclohexane-1-carboxylic acid] | 0.283
CCCC(C)(C)N(C)C(=O)OCc1c(-c2ccc(O[C@H]3CCC[C@H](C(=O)O)C3)cn2)nnn1C [Example 78, (1S,3S)-3-((6-(1-methyl-5-(((methyl(2-methylpentan-2-yl)carbamoyl)oxy)methyl)-1H-1,2,3-triazol-4-yl)pyridin-3-yl)oxy)cyclohexane-1-carboxylic acid] | 0.027
Cc1nc(-c2nnn(C)c2COC(=O)N(C)CC2CC(F)(F)C2)ccc1O[C@H]1CCC[C@H](C(=O)O)C1 [Example 145, (1S,3S)-3-((6-(5-(((((3,3-difluoro-cyclobutyl)methyl)(methyl)carbamoyl)oxy)methyl)-1-methyl-1H-1,2,3-triazol-4-yl)-2-methylpyridin-3-yl)oxy)cyclohexane-1-carboxylic acid] | 0.094
Cc1cc(-c2nnn(C)c2COC(=O)N(C)C2CCCC2)ccc1O[C@H]1CCC[C@H](C(=O)O)C1 [Example 41, (1S,3S)-3-(4-(5-(((cyclopentyl(methyl)carbamoyl)oxy)methyl)-1-methyl-1H-1,2,3-triazol-4-yl)-2-methylphenoxy)cyclohexane-1-carboxylic acid] | 0.014
CN(C(=O)OCc1c(-c2ccc(O[C@H]3CCC[C@H](C(=O)O)C3)cc2)nnn1C)C1CCC1 [Example 73, (1S,3S)-3-(4-(5-(((cyclobutyl(methyl)carbamoyl)oxy)methyl)-1-methyl-1H-1,2,3-triazol-4-yl)phenoxy)cyclohexane-1-carboxylic acid] | 0.062
CN(Cc1ccccc1)C(=O)OCc1c(-c2ccc(O[C@H]3CCC[C@H](C(=O)O)C3)c(F)c2)nnn1C [Example 26, (1S,3S)-3-(4-(5-(((benzyl(methyl)carbamoyl)oxy)methyl)-1-methyl-1H-1,2,3-triazol-4-yl)-2-fluorophenoxy)cyclohexane-1-carboxylic acid] | 0.034
CCCCN(C)C(=O)OCc1c(-c2ccc(O[C@H]3CCC[C@H](C(=O)O)C3)c(C)c2)nnn1C [Example 40, (1S,3S)-3-(4-(5-(((butyl(methyl)carbamoyl)oxy)methyl)-1-methyl-1H-1,2,3-triazol-4-yl)-2-methylphenoxy)cyclohexane-1-carboxylic acid] | 0.028
